In patent US9606132B2, “Methods of monitoring adherence to lurasidone therapy” (Ameritox, Ltd., priority 2013, dated 2017):
Several values for one entry are separate records, joined by “and”; a condition that tells them apart may be missing. Equal values may be shown once.

What was measured:
[1] = cited from earlier work
[2] = cited from earlier work; remark: listed apart in the source
[3] = cited from earlier work; remark: listed apart in the source
CYP3A4 = target: T1, CYP3A4 (Homo sapiens, UniProt P08684); conditions: liver; cited from earlier work
T1 construct: host or cells: liver (in vivo metabolism, general statement)

[4] = Qualitative identification of lurasidone and metabolites in urine by Q-ToF MS/MS (Example 1); conditions: chronic lurasidone doses; for Lurasidone Metabolite Distribution in Human Urine (qualitative identification): individual subjects
Description: Urine samples of normally metabolizing human subjects who were known to be taking chronic doses of lurasidone were tested for the presence of lurasidone and eleven metabolites (excluding isomeric metabolites). Each patient sample was analyzed twice to ensure accuracy. Due to the high probability for false identification of isobars, MS/MS data was collected and selectively looked at to add confidence to the identification.

[5] = Quantitative urine testing of patients prescribed Latuda for compliance over 5 days (Examples 2-7)
Description: The urine of 20 patients who were prescribed 20 mg of Latuda® (lurasidone) was tested for compliance over 5 days (Table 3).
Samples that were deemed invalid based on pH and/or specific gravity (n=7) were not included in calculations. Any drug/metabolite concentration that was less than the LOD/LOQ (5 ng/mL) as noted in Table 3 was also excluded from the calculations.
The urine of 12 patients who were prescribed 40 mg of Latuda® (lurasidone) was tested for compliance over 5 days (Table 5).
Samples that were deemed invalid based on pH and/or specific gravity (n=3) were not included in calculations. Any drug/metabolite concentration that was less than the LOD/LOQ (5 ng/mL) as noted in Table 5 was also excluded from the calculations.
The urine of 2 patients who was prescribed 60 mg of Latuda® (lurasidone) was tested for compliance over 5 days (Table 7).
The urine of 15 patients who were prescribed 80 mg of Latuda® (lurasidone) was tested for compliance over 5 days (Table 9).
Any drug/metabolite concentration that was less than the LOD/LOQ (5 ng/mL) as noted in Table 5 was also excluded from the calculations.
The urine of 1 patient who was prescribed 100 mg of Latuda® (lurasidone) was tested for compliance over 5 days (Table 11).
The urine of 6 patients who were prescribed 120 mg of Latuda® (lurasidone) was tested for compliance over 5 days (Table 13).
Samples that were deemed invalid based on pH and/or specific gravity (n=2) were not included in calculations.

[6] = 20 mg/day, n 53 valid samples, values below LOD/LOQ excluded
[7] = 40 mg/day, n 33 valid samples, values below LOD/LOQ excluded
[8] = 80 mg/day, n 45, values below LOD/LOQ excluded

T1 sequence (P08684 whole entry): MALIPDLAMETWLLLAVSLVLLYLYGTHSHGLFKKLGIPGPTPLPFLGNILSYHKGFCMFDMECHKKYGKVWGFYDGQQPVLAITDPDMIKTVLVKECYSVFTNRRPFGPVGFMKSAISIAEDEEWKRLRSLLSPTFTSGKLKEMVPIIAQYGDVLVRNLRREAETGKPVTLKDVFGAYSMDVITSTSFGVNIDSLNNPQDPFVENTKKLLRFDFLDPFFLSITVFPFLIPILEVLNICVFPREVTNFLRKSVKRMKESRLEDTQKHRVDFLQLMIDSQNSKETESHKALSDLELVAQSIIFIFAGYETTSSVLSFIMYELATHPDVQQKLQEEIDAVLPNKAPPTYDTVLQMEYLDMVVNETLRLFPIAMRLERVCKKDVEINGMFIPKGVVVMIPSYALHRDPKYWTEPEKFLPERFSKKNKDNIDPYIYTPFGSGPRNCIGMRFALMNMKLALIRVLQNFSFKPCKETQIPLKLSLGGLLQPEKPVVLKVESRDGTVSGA

## Lurasidone
[1]
  log P: 5.9
  pKa: 7.6
[2]; days of dosing
  time to steady state serum concentrations: 7 days
[2]; in vivo
  mean elimination half-life: 18 h
[3]; excretion studies in humans
  excreted in the feces: 80%
  recovered in the urine: 9%
[3]; plasma, post oral dosing
  share of total radioactivity in plasma: 12%
CYP3A4
  metabolizing enzyme: metabolized in the liver primarily by CYP3A4
[4]
  detectability in human urine (Example 1): detected in the majority of the samples
[4]; Run 1
  Lurasidone Metabolite Distribution in Human Urine (qualitative identification): ✓* (5×) and ✓^ (4×)
[4]; Run 2
  Lurasidone Metabolite Distribution in Human Urine (qualitative identification): ✓^ (4×) and ✓* (5×)
[5]; 20 mg/day Latuda, Day 1, individual subjects, ** = below LOD/LOQ 5 ng/mL (negative)
  urine concentration: 9.7 ng/mL and 12.7 ng/mL and 9.0 ng/mL and 33.1 ng/mL and 24.6 ng/mL and 6.9 ng/mL and 6.0 ng/mL and 4.4* ** ng/mL and 9.1 ng/mL (2×) and 10.1 ng/mL and 5.7 ng/mL and 7.8 ng/mL and 12.9 ng/mL and 25.8 ng/mL and 13.8 ng/mL and 3.2** ng/mL and 83.1 ng/mL and 33.4 ng/mL and 12.0 ng/mL
[5]; 20 mg/day Latuda, Day 4, individual subjects, ** = below LOD/LOQ 5 ng/mL (negative)
  urine concentration: 149.0 ng/mL and 14.3 ng/mL and 18.9 ng/mL and 4.8** ng/mL and 14.0 ng/mL and 5.7 ng/mL and 4.7* ** ng/mL and 7.0 ng/mL (2×) and 2.9* ** ng/mL and 31.3 ng/mL and 13.0 ng/mL and 7.3 ng/mL and 24.3 ng/mL and 4.3** ng/mL and 12.5 ng/mL and 17.5 ng/mL and 5.8 ng/mL and 29.1 ng/mL and 8.0 ng/mL
[5]; 20 mg/day Latuda, Day 5, individual subjects, ** = below LOD/LOQ 5 ng/mL (negative)
  urine concentration: 9.6 ng/mL and 8.8 ng/mL and 13.2 ng/mL and 24.4 ng/mL and 26.2 ng/mL and 20.3 ng/mL and 6.5 ng/mL and 6.6 ng/mL and 6.0 ng/mL and 18.6 ng/mL and 12.1 ng/mL and 13.6 ng/mL and 5.4 ng/mL and 10.2 ng/mL and 11.0 ng/mL and 12.4 ng/mL and 5.2 ng/mL and 4.7** ng/mL and 23.2 ng/mL and 10.4 ng/mL
[5]; 20 mg/day, n 53 valid samples
  urine concentration, Maximum Value: 149.00 ng/mL
  urine concentration, Median Value: 12.45 ng/mL
[5]; [6]
  urine concentration, Average: 18.38 ng/mL
  urine concentration, Minimum Value: 5.70 ng/mL
[5]; 40 mg/day Latuda, Day 1, individual subjects, ** = below LOD/LOQ 5 ng/mL (negative)
  urine concentration: 30.5 ng/mL and 31.9 ng/mL and 63.9 ng/mL and 25.8 ng/mL and 4.4** ng/mL and 30.6 ng/mL and 9.8 ng/mL and 112.1 ng/mL and 14.0 ng/mL and 11.8 ng/mL and 129.1 ng/mL and 77.1 ng/mL
[5]; 40 mg/day Latuda, Day 4, individual subjects, ** = below LOD/LOQ 5 ng/mL (negative)
  urine concentration: 21.7 ng/mL and 25.6 ng/mL and 70.7 ng/mL and 69.3 ng/mL and 26.4 ng/mL and 1.0** ng/mL and 41.3 ng/mL and 14.5 ng/mL and 54.0 ng/mL and 32.8 ng/mL and 12.8 ng/mL and 38.0 ng/mL
[5]; 40 mg/day Latuda, Day 5, individual subjects, ** = below LOD/LOQ 5 ng/mL (negative)
  urine concentration: 37.9 ng/mL (2×) and 60.0 ng/mL and 33.4 ng/mL and 40.1 ng/mL and 1.3** ng/mL and 35.8 ng/mL and 7.2 ng/mL and 192.1 ng/mL and 11.3 ng/mL and 7.8 ng/mL and 56.4 ng/mL
[5]; 40 mg/day, n 33 valid samples
  urine concentration, Maximum Value: 192.10 ng/mL
  urine concentration, Median Value: 33.10 ng/mL
[5]; [7]
  urine concentration, Average: 44.23 ng/mL
  urine concentration, Minimum Value: 7.20 ng/mL
[5]; 60 mg/day Latuda, Day 1, individual subjects
  urine concentration: 16.3 ng/mL
[5]; 60 mg/day Latuda, Day 4, individual subjects
  urine concentration: 25.3 ng/mL and 36.8 ng/mL
[5]; 60 mg/day Latuda, Day 5, individual subjects
  urine concentration: 50.5 ng/mL
[5]; 60 mg/day, n 6
  urine concentration, Average: 30.30 ng/mL
  urine concentration, Maximum Value: 50.50 ng/mL
  urine concentration, Median Value: 31.05 ng/mL
  urine concentration, Minimum Value: 15.60 ng/mL
[5]; 80 mg/day, n 45
  urine concentration, Maximum Value: 556.60 ng/mL
  urine concentration, Median Value: 70.00 ng/mL
[5]; [8]
  urine concentration, Average: 120.26 ng/mL
  urine concentration, Minimum Value: 10.10 ng/mL
[5]; 100 mg/day, n 3
  urine concentration, Average: 73.97 ng/mL
  urine concentration, Maximum Value: 94.90 ng/mL
  urine concentration, Median Value: 64.50 ng/mL
  urine concentration, Minimum Value: 62.50 ng/mL
[5]; 120 mg/day, n 16 valid samples
  urine concentration, Average: 95.42 ng/mL
  urine concentration, Maximum Value: 260.10 ng/mL
  urine concentration, Median Value: 73.60 ng/mL
  urine concentration, Minimum Value: 12.40 ng/mL
[5]; patient prescribed 80 mg/day Latuda, subject II, day 1
  concentration in urine: 147.1 ng/mL
[5]; patient prescribed 80 mg/day Latuda, subject II, day 4
  concentration in urine: 144.8 ng/mL
[5]; patient prescribed 80 mg/day Latuda, subject II, day 5
  concentration in urine: 112.7 ng/mL
[5]; patient prescribed 80 mg/day Latuda, subject eleven, day 1
  concentration in urine: 556.6 ng/mL
[5]; patient prescribed 80 mg/day Latuda, subject eleven, day 4
  concentration in urine: 503.8 ng/mL
[5]; patient prescribed 80 mg/day Latuda, subject eleven, day 5
  concentration in urine: 264.0 ng/mL
[5]; patient prescribed 80 mg/day Latuda, subject fifteen, day 1
  concentration in urine: 138.5 ng/mL
[5]; patient prescribed 80 mg/day Latuda, subject fifteen, day 4
  concentration in urine: 83.8 ng/mL
[5]; patient prescribed 80 mg/day Latuda, subject fifteen, day 5
  concentration in urine: 67.6 ng/mL
[5]; patient prescribed 80 mg/day Latuda, subject five, day 1
  concentration in urine: 57.3 ng/mL
[5]; patient prescribed 80 mg/day Latuda, subject five, day 4
  concentration in urine: 69.6 ng/mL
[5]; patient prescribed 80 mg/day Latuda, subject five, day 5
  concentration in urine: 100.6 ng/mL
[5]; patient prescribed 80 mg/day Latuda, subject four, day 1
  concentration in urine: 175.2 ng/mL
[5]; patient prescribed 80 mg/day Latuda, subject four, day 4
  concentration in urine: 96.4 ng/mL
[5]; patient prescribed 80 mg/day Latuda, subject four, day 5
  concentration in urine: 116.3 ng/mL
[5]; patient prescribed 80 mg/day Latuda, subject nine, day 1
  concentration in urine: 52.6 ng/mL
[5]; patient prescribed 80 mg/day Latuda, subject nine, day 4
  concentration in urine: 43.7 ng/mL
[5]; patient prescribed 80 mg/day Latuda, subject nine, day 5
  concentration in urine: 38.9 ng/mL
[5]; patient prescribed 80 mg/day Latuda, subject nineteen, day 1
  concentration in urine: 210.7 ng/mL
[5]; patient prescribed 80 mg/day Latuda, subject nineteen, day 4
  concentration in urine: 70.4 ng/mL
[5]; patient prescribed 80 mg/day Latuda, subject nineteen, day 5
  concentration in urine: 16.1 ng/mL
[5]; patient prescribed 80 mg/day Latuda, subject one, day 1, values marked ** below LOD/LOQ of 5 ng/mL = negative result, * ion ratio criteria not met
  concentration in urine: 4.8** ng/mL
[5]; patient prescribed 80 mg/day Latuda, subject one, day 4
  concentration in urine: 52.0 ng/mL
[5]; patient prescribed 80 mg/day Latuda, subject one, day 5
  concentration in urine: 22.9 ng/mL
[5]; patient prescribed 80 mg/day Latuda, subject seventeen, day 1
  concentration in urine: 152.8 ng/mL
[5]; patient prescribed 80 mg/day Latuda, subject seventeen, day 4
  concentration in urine: 83.3 ng/mL
[5]; patient prescribed 80 mg/day Latuda, subject seventeen, day 5
  concentration in urine: 72.4 ng/mL
[5]; patient prescribed 80 mg/day Latuda, subject sixteen, day 1
  concentration in urine: 10.1 ng/mL
[5]; patient prescribed 80 mg/day Latuda, subject sixteen, day 4
  concentration in urine: 14.5 ng/mL
[5]; patient prescribed 80 mg/day Latuda, subject sixteen, day 5
  concentration in urine: 41.0 ng/mL
[5]; patient prescribed 80 mg/day Latuda, subject ten, day 1
  concentration in urine: 40.5 ng/mL
[5]; patient prescribed 80 mg/day Latuda, subject ten, day 4
  concentration in urine: 162.5 ng/mL
[5]; patient prescribed 80 mg/day Latuda, subject ten, day 5
  concentration in urine: 48.3 ng/mL
[5]; patient prescribed 80 mg/day Latuda, subject thirteen, day 1
  concentration in urine: 145.2 ng/mL
[5]; patient prescribed 80 mg/day Latuda, subject thirteen, day 4
  concentration in urine: 298.3 ng/mL
[5]; patient prescribed 80 mg/day Latuda, subject thirteen, day 5
  concentration in urine: 539.5 ng/mL
[5]; patient prescribed 80 mg/day Latuda, subject three, day 1
  concentration in urine: 59.5 ng/mL
[5]; patient prescribed 80 mg/day Latuda, subject three, day 4
  concentration in urine: 35.9 ng/mL
[5]; patient prescribed 80 mg/day Latuda, subject three, day 5
  concentration in urine: 69.5 ng/mL
[5]; patient prescribed 80 mg/day Latuda, subject twelve, day 1, values marked ** below LOD/LOQ of 5 ng/mL = negative result
  concentration in urine: 0.0** ng/mL
[5]; patient prescribed 80 mg/day Latuda, subject twelve, day 4
  concentration in urine: 32.9 ng/mL
[5]; patient prescribed 80 mg/day Latuda, subject twelve, day 5
  concentration in urine: 43.5 ng/mL
[5]; patient prescribed 80 mg/day Latuda, subject two, day 1
  concentration in urine: 23.0 ng/mL
[5]; patient prescribed 80 mg/day Latuda, subject two, day 4, values marked ** below LOD/LOQ of 5 ng/mL = negative result
  concentration in urine: 0.1** ng/mL
[5]; patient prescribed 80 mg/day Latuda, subject two, day 5
  concentration in urine: 36.7 ng/mL
[5]; patient prescribed 120 mg/day Latuda, subject eight, day 1
  concentration in urine: 148.7 ng/mL
[5]; patient prescribed 120 mg/day Latuda, subject eight, day 4
  concentration in urine: 260.1 ng/mL
[5]; patient prescribed 120 mg/day Latuda, subject eight, day 5, specimen validity (creatinine, specific gravity) not acceptable
  concentration in urine: 57.2 ng/mL
[5]; patient prescribed 120 mg/day Latuda, subject eighteen, day 1
  concentration in urine: 23.4 ng/mL
[5]; patient prescribed 120 mg/day Latuda, subject eighteen, day 4
  concentration in urine: 27.5 ng/mL
[5]; patient prescribed 120 mg/day Latuda, subject eighteen, day 5
  concentration in urine: 12.4 ng/mL
[5]; patient prescribed 120 mg/day Latuda, subject fourteen, day 1
  concentration in urine: 102.7 ng/mL
[5]; patient prescribed 120 mg/day Latuda, subject fourteen, day 4
  concentration in urine: 87.3 ng/mL
[5]; patient prescribed 120 mg/day Latuda, subject fourteen, day 5
  concentration in urine: 59.1 ng/mL
[5]; patient prescribed 120 mg/day Latuda, subject seven, day 1
  concentration in urine: 83.9 ng/mL
[5]; patient prescribed 120 mg/day Latuda, subject seven, day 4
  concentration in urine: 46.4 ng/mL
[5]; patient prescribed 120 mg/day Latuda, subject seven, day 5
  concentration in urine: 63.3 ng/mL
[5]; patient prescribed 120 mg/day Latuda, subject six, day 1, specimen validity (creatinine) not acceptable
  concentration in urine: 21.7 ng/mL
[5]; patient prescribed 120 mg/day Latuda, subject six, day 4, specimen validity (specific gravity) not acceptable
  concentration in urine: 23.7 ng/mL
[5]; patient prescribed 120 mg/day Latuda, subject six, day 5
  concentration in urine: 61.6 ng/mL
[5]; patient prescribed 120 mg/day Latuda, subject twenty, day 1
  concentration in urine: 126.2 ng/mL
[5]; patient prescribed 120 mg/day Latuda, subject twenty, day 4
  concentration in urine: 150.7 ng/mL
[5]; patient prescribed 120 mg/day Latuda, subject twenty, day 5
  concentration in urine: 251.7 ng/mL
